In one series the test system is lung cancer cells. It counts as in vivo, mice. Conditions: after completion of the experiment.

Take `O=C(O)c1cc(O)c2c(c1)C(=O)c1cccc(O)c1C2=O` [rhein]: the “toxic damage to the tumor-bearing mice” value (different doses, under the experimental conditions) is reported as “did not cause toxic damage”. The “influence on the body temperature of tumor-bearing mice” value (mouse, in vivo) was “some fluctuations”. Besides, in the series with lung cancer cells, the “overall inhibition ratio (lung metastasis)” value was 15.8%.

The record behind these values is patent US20220296659A1, “PHARMACEUTICAL COMPOSITION FOR TREATMENT OF TUMOR OR CANCER, AND APPLICATION THEREOF” (FANTASIA BIOPHARMA (ZHEJIANG) CO. LTD, priority 2019, published 2022).
